In brackets after ≈: the same amount, converted by molar mass. Like-named read-outs stand apart in the source and are kept apart here.
How the values were obtained:
[1] = test system: AAP1-resistant mutants, derivatives of M. smegmatis ATCC19420; experiment: MICs in AAP1-resistant mutants (resistance and cross-resistance levels); type: cell-based, Mycobacterium smegmatis; details: MICs in AAP1-resistant mutants
[2] = test system: Mycobacterium tuberculosis H37Rv; experiment: Microplate Alamar Blue assay (MABA) MIC, M. tuberculosis; type: cell-based
Text: (§1) Minimal inhibitory concentrations (MICs) in Mycobacterium tuberculosis H37Rv and Mycobacterium avium ATCC 25291 were quantified using microplate Alamar Blue assays as described (MABA; [Collins, L. & Franzblau, S. (1997) Microplate Alamar Blue assay versus BACTEC 460 system for high-throughput screening of compounds against Mycobacterium tuberculosis and Mycobacterium avium. Antimicrob. Agents Chemother. 41, 1004-1009]).

[3] = test system: Mycobacterium avium ATCC 25291; experiment: Microplate Alamar Blue assay (MABA) MIC, M. avium; type: cell-based; details: ATCC25291, M. avium ATCC 25291
Text: as §1

[4] = test system: Mycobacterium smegmatis ATCC 19420; experiment: Broth microdilution MIC, M. smegmatis; type: cell-based; details: Mycolicibacterium smegmatis
Text: (§2) MICs in Mycobacterium smegmatis ATCC 19420 and Mycobacterium smegmatis ATCC 19420 derivatives were quantified using broth microdilution assays as described [Clinical and Laboratory Standards Institute (CLSI/NCCLS) (2009) Methods for Dilution Antimicrobial Susceptibility Tests for Bacteria That Grow Aerobically; Approved Standard, Eighth Edition. CLIS Document M07-A8 (CLIS, Wayne Pa.)].

[5] = test system: Vero E6 ATCC CRL1586 cells; experiment: Mammalian-cell cytotoxicity, minimal cytotoxic concentration (CellTiter96); type: cell-based
Procedure: Minimal cytotoxic concentrations (MCCs) against mammalian cells in culture were determined using Vero E6 ATCC CRL1586 cells and the CellTiter96 assay kit (Promega, Inc.). […]

[6] = molecular target: Mycobacterium tuberculosis RNA polymerase (Mycobacterium tuberculosis, UniProt P9WGY7+P9WGY9); experiment: Run-off transcription assay with Mycobacterium tuberculosis RNA polymerase (radiochemical); type: biochemical
Procedure: Run-off transcription assays with Mycobacterium tuberculosis RNA polymerase were performed using reaction mixtures containing (10 μl): 0-100 μM test compound, 75 nM Mycobacterium tuberculosis RNA polymerase core enzyme, 300 nM Mycobacterium tuberculosis σ^A, 20 nM 130 bp DNA fragment containing positions −100 to −1 of the bacteriophage […] N25 promoter followed by positions +1 to +30 of the lacUV5-15 promoter of [Mukhopadhyay, J., Kapanidis, A., Mekler, V., Kortkhonjia, E., Ebright, Y., Ebright, R. (2001) Cell 106, 453-463], 25 nM [alpha-^32P]UTP (600 Bq/pmol) for an initial 2 min at 37° C. and 100 μM [alpha-^32P]UTP (6 Bq/pmol) for a subsequent 5 min at 37° C., 100 μM ATP, 100 μM GTP, 100 μM UTP, 100 μM CTP, 40 mM Tris-HCl, pH 8.0, 80 mM NaCl, 5 mM MgCl2, 2.5 mM DTT, and 12.7% glycerol. Reactions were terminated by addition of […] 80% formamide, 10 mM EDTA, 0.04% bromophenol blue, and 0.04% xylene cyanol, followed by heating for 5 min at 90° C. Reaction products were resolved by 15% urea-PAGE, and quantified using a storage-phosphor scanner.

[7] = test system: rifampin-resistant mutants, derivatives of M. smegmatis ATCC19420; experiment: MICs in rifampin-resistant mutants (cross-resistance levels); type: cell-based, Mycobacterium smegmatis
Text: as §2

[8] = read-out: MIC Mycobacterium tuberculosis H37Rv
[9] = ATCC19420, M. smegmatis ATCC 19420, read-out: MIC Mycobacterium smegmatis ATCC 19420
[10] = IC50 Mycobacterium tuberculosis RNA polymerase
[11] = Inhibition of mycobacterial RNA polymerase (IC50s), radiochemical transcription assays, M. tuberculosis RNA polymerase
[12] = MABA-MIC assays, read-out: Inhibition of mycobacterial growth in culture (MICs)
[13] = ATCC19420, broth microdilution assays, M. smegmatis ATCC19420, read-out: Inhibition of mycobacterial growth in culture (MICs)

Sequence of Mycobacterium tuberculosis RNA polymerase (P9WGZ1 whole entry, the tested form may be a part): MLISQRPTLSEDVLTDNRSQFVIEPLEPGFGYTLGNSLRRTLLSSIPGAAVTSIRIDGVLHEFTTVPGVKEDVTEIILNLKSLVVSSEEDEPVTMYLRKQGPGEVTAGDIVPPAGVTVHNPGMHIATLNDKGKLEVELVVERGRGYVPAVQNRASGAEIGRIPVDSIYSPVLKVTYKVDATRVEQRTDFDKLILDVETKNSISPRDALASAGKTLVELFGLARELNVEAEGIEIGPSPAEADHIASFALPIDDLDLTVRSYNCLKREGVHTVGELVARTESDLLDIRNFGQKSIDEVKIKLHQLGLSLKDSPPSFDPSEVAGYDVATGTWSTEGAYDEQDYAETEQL
Sequence of Mycobacterium tuberculosis RNA polymerase (P9WGY5 whole entry, further chain, the tested form may be a part): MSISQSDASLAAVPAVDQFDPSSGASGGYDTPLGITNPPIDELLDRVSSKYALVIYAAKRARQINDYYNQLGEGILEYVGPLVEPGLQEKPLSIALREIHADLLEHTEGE
Sequence of Mycobacterium tuberculosis RNA polymerase (P9WGY9 whole entry, the tested form may be a part): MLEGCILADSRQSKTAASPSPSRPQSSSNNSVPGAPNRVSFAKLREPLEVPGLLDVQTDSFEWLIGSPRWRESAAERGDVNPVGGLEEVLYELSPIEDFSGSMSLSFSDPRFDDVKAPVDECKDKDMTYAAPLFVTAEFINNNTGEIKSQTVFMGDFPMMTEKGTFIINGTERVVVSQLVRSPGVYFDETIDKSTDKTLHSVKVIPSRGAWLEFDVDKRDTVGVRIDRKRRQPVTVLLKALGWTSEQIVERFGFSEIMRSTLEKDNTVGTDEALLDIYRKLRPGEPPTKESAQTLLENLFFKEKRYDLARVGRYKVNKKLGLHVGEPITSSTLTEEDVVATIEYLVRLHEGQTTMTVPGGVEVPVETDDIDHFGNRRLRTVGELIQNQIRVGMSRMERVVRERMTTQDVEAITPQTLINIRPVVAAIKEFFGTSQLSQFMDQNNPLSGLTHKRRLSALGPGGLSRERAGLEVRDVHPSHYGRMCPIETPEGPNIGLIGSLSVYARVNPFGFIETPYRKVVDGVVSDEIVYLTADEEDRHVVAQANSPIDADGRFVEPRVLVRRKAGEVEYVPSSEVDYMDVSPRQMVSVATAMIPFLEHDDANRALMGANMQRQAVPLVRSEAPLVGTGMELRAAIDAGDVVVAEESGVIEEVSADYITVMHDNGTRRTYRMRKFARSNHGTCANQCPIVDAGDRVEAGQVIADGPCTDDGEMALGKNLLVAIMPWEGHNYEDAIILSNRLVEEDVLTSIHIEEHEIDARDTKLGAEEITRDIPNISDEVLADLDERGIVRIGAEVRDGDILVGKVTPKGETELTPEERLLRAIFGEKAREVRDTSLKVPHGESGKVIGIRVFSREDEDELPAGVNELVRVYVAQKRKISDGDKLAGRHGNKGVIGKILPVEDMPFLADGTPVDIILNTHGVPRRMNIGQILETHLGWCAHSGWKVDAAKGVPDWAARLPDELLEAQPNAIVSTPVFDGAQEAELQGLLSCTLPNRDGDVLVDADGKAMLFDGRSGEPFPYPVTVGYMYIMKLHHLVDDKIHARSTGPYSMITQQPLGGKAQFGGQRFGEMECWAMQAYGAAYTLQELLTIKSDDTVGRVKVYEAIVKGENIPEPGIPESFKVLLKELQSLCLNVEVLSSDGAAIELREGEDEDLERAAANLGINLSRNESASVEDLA
Sequence of Mycobacterium tuberculosis RNA polymerase (P9WGI1 whole entry, further chain, the tested form may be a part): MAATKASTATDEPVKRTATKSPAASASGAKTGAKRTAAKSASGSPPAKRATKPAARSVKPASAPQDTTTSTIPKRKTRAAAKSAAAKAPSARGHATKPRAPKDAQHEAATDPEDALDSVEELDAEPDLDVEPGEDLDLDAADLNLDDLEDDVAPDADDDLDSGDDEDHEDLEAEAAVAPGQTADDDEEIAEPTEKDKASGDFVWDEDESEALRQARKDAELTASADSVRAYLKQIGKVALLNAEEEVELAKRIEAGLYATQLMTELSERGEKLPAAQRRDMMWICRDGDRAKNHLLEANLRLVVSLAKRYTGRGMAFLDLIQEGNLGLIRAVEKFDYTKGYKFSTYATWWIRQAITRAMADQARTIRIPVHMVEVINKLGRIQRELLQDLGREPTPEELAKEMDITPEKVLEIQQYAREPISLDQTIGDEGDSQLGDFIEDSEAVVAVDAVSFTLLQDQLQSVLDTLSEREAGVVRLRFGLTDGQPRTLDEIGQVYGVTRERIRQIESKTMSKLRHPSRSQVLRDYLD
Sequence of Mycobacterium tuberculosis RNA polymerase (P9WGY7 whole entry, the tested form may be a part): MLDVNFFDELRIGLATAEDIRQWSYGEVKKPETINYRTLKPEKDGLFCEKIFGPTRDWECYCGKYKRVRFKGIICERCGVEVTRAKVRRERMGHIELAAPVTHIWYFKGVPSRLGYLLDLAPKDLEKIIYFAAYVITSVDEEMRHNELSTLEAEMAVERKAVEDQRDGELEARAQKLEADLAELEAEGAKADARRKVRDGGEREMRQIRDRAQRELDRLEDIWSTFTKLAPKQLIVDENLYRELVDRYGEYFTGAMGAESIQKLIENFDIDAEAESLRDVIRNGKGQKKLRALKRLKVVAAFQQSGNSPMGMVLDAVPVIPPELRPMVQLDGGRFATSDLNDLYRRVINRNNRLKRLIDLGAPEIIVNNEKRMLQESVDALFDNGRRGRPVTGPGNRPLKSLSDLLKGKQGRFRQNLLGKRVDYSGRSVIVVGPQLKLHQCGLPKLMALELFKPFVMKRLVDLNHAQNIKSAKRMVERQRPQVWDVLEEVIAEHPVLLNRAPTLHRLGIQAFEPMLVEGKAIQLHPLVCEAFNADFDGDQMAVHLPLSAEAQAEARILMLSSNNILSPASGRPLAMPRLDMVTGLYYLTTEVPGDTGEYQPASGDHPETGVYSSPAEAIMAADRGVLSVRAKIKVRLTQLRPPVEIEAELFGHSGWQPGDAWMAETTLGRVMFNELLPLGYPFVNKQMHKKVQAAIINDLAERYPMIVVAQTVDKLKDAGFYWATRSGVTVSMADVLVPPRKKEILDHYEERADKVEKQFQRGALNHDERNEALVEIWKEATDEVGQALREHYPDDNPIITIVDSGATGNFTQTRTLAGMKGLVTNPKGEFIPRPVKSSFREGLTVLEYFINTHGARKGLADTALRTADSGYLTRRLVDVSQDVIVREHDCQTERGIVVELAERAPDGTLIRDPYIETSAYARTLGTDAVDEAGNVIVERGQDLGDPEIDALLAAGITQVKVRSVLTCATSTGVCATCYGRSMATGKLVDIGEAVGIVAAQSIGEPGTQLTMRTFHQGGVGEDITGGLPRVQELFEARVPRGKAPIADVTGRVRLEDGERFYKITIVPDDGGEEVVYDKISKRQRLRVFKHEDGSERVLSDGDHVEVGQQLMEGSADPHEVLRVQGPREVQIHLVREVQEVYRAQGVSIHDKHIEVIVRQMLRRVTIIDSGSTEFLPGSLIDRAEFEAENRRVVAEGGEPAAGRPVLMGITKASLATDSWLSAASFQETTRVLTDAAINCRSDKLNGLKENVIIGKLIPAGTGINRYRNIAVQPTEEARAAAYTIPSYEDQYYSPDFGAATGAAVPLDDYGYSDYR

Compound	cross-resistance of AAP1-resistant mutants to the compound [1]	MIC [2, 8] [µg/mL]	MIC [3] [µg/mL]	MIC [4, 9] [µg/mL]	MCC mammalian cells Vero E6 ATCC CRL1586 [5] [µg/mL]	IC50 [6, 10] [nM]	cross-resistance of rifampin-resistant mutants to the compound [7]	IC50 [6, 11] [nM]	MIC [2, 12] [µg/mL]	MIC [4, 13] [µg/mL]	hypersensitivity of AAP1-resistant mutants to the compound [1]	MIC ([4]; ATCC19420, read-out: MIC with wild-type rpoB and wild-type rpoC, M. smegmatis ATCC19420 wild type, reference for AAP1-resistant mutants) [µg/mL]
O=C(NC(Cc1ccccc1)C(=O)Nc1ccccc1N1CCNCC1)c1cccs1 (stereo not shown) [IX-213, N-(1-oxo-3-phenyl-1-((2-(piperazin-1-yl)phenyl)amino)propan-2-yl)thiophene-2-carboxamide]	cross-resistance	1.56 (≈ 3.59 µM)	0.78 (≈ 1.79 µM)	0.097 (≈ 0.223 µM)	33	–	–	–	–	–	–	–
O=C(NC(Cc1ccccc1)C(=O)Nc1ccccc1N1CCOCC1)c1ccccc1 (stereo not shown) [I-181]	–	0.78 (≈ 1.82 µM)	6.25 (≈ 14.6 µM)	0.073 (≈ 0.17 µM)	>100	400	–	–	–	–	–	–
Cc1ccc(Cl)cc1NC(=O)C(Cc1ccccc1)NC(=O)c1ccccc1 (stereo not shown) [I-86]	–	1.56 (≈ 3.97 µM)	3.12 (≈ 7.95 µM)	0.195 (≈ 0.496 µM)	13	920	No rifampin-resistant mutant was found to exhibit cross-resistance	–	–	–	–	–
Cc1ccccc1NC(=O)C(Cc1ccccc1)NC(=O)c1ccccc1F (stereo not shown) [I-80]	–	3.12 (≈ 8.29 µM)	6.25 (≈ 16.6 µM)	0.39 (≈ 1.04 µM)	43	2800	No rifampin-resistant mutant was found to exhibit cross-resistance	–	–	–	–	–
Cc1ccccc1C(=O)NC(Cc1ccccc1)C(=O)Nc1ccccc1N1CCNCC1 (stereo not shown) [IX-212, 2-methyl-N-(1-oxo-3-phenyl-1-((2-(piperazin-1-yl)phenyl)amino)-propan-2-yl)benzamide]	cross-resistance	1.56 (≈ 3.52 µM)	1.56 (≈ 3.52 µM)	0.097 (≈ 0.219 µM)	15	–	–	–	–	–	–	–
Cc1ccc(Cl)cc1NC(=O)C(Cc1ccccc1)NC(=O)c1ccccc1F (stereo not shown) [IX-55, N-(1-((5-chloro-2-methylphenyl)amino)-1-oxo-3-phenylpropan-2-yl)-2-fluorobenzamide]	cross-resistance	1.56 (≈ 3.8 µM)	3.12 (≈ 7.61 µM)	0.39 (≈ 0.949 µM)	10	470	–	–	–	–	–	–
NC1CCN(c2ccc(F)cc2NC(=O)C(Cc2ccccc2)NC(=O)c2ccccc2F)CC1 (stereo not shown) [IX-312, N-(1-((2-(4-aminopiperidin-1-yl)-5-fluorophenyl)amino)-1-oxo-3-phenylpropan-2-yl)-2-fluorobenzamide]	cross-resistance	3.13 (≈ 6.54 µM)	3.13 (≈ 6.54 µM)	0.195 (≈ 0.407 µM)	–	–	–	–	–	–	–	–
O=C(NC(Cc1ccccc1)C(=O)Nc1cc(F)ccc1N1CCNCC1)c1ccccc1 (stereo not shown) [IX-245, N-(1-((5-fluoro-2-(piperazin-1-yl)phenyl)amino)-1-oxo-3-phenyl-propan-2-yl)benzamide]	–	1.56 (≈ 3.49 µM)	0.78 (≈ 1.75 µM)	0.39 (≈ 0.873 µM)	17	220	–	–	–	–	–	–
Cc1ccccc1NC(=O)C(Cc1ccc(O)cc1)NC(=O)c1ccccc1 (stereo not shown) [I-13, N-(3-(4-hydroxyphenyl)-1-oxo-1-(o-tolylamino)propan-2-yl)benzamide]	cross-resistance	12.5 (≈ 33.4 µM)	25 (≈ 66.8 µM)	0.195 (≈ 0.521 µM)	37	–	No rifampin-resistant mutant was found to exhibit cross-resistance	–	–	–	–	–
COc1ccc(F)cc1NC(=O)C(Cc1ccccc1)NC(=O)c1ccccc1 (stereo not shown) [IX-73, N-(1-((5-fluoro-2-methoxyphenyl)amino)-1-oxo-3-phenylpropan-2-yl)benzamide]	cross-resistance	1.56 (≈ 3.98 µM)	0.78 (≈ 1.99 µM)	0.19 (≈ 0.484 µM)	>100	–	–	–	–	–	–	–
Cc1ccc(F)cc1NC(=O)C(Cc1ccccc1)NC(=O)c1ccccc1 (stereo not shown) [I-75]	–	1.56 (≈ 4.14 µM)	1.56 (≈ 4.14 µM)	0.195 (≈ 0.518 µM)	4	990	–	–	–	–	–	–
Cc1ccccc1NC(=O)[C@H](Cc1ccccc1)NC(=O)c1ccccc1 [AAP1b, Nα-benzoyl-N-(2-methylphenyl)-L-phenylalaninamide]	–	–	–	–	–	–	–	12000	> 50	1.56 (≈ 4.35 µM)	–	–
O=C(NC(Cc1ccccc1)C(=O)Nc1cc(F)ccc1N1CC2CNCC2C1)c1ccccc1F (stereo not shown) [IX-313, 2-fluoro-N-(1-((5-fluoro-2-(hexahydropyrrolo[3,4-c]pyrrol-2(1H)-yl)phenyl)amino)-1-oxo-3-phenylpropan-2-yl)benzamide]	cross-resistance	1.56 (≈ 3.18 µM)	1.56 (≈ 3.18 µM)	0.39 (≈ 0.795 µM)	–	–	–	–	–	–	–	–
O=C(NC(Cc1ccccc1)C(=O)Nc1ccccc1N1CCNCC1)c1ccccc1F (stereo not shown) [IX-211, 2-fluoro-N-(1-oxo-3-phenyl-1-((2-(piperazin-1-yl)phenyl)amino)-propan-2-yl)benzamide]	cross-resistance	1.56 (≈ 3.49 µM)	1.56 (≈ 3.49 µM)	0.09 (≈ 0.202 µM)	18	–	–	–	–	–	–	–
Cc1ccccc1NC(=O)[C@@H](Cc1ccccc1)NC(=O)c1ccccc1 [AAP1a, Nα-benzoyl-N-(2-methylphenyl)-D-phenylalaninamide]	–	–	–	–	–	–	–	130	3.13 (≈ 8.73 µM)	0.2 (≈ 0.558 µM)	–	–
O=C(NC(Cc1ccccc1)C(=O)Nc1cc(F)ccc1N1CCNCC1)c1ccccc1Br (stereo not shown) [IX-315, 2-bromo-N-(1-((5-fluoro-2-(piperazin-1-yl)phenyl)amino)-1-oxo-3-phenylpropan-2-yl)benzamide]	–	3.12 (≈ 5.95 µM)	1.56 (≈ 2.97 µM)	0.39 (≈ 0.742 µM)	12.5	210	–	–	–	–	–	–
COc1ccc(F)cc1NC(=O)C(Cc1ccccc1)NC(=O)c1ccccc1F (stereo not shown) [IX-276, 2-fluoro-N-(1-((5-fluoro-2-methoxyphenyl)amino)-1-oxo-3-phenyl-propan-2-yl)benzamide]	cross-resistance	0.16 (≈ 0.39 µM)	0.78 (≈ 1.9 µM)	0.39 (≈ 0.95 µM)	–	–	–	–	–	–	–	–
CO[C@H]1/C=C/O[C@@]2(C)Oc3c(C)c(O)c4c(O)c(c(/C=N/N5CCN(C)CC5)c(O)c4c3C2=O)NC(=O)/C(C)=C\C=C\[C@H](C)[C@H](O)[C@@H](C)[C@@H](O)[C@@H](C)[C@H](OC(C)=O)[C@@H]1C [rifampin, reference compound]	No AAP1-resistant mutant was found to exhibit cross-resistance	–	–	–	–	–	–	–	–	–	Some AAP1 resistant mutants were found to be hypersensitive	3.13 (≈ 3.8 µM)
O=C(NC(Cc1ccccc1)C(=O)Nc1cccc2scnc12)c1ccccc1 (stereo not shown) [IX-235, N-(1-(benzo[d]thiazol-4-ylamino)-1-oxo-3-phenylpropan-2-yl)benz-amide]	cross-resistance	3.12 (≈ 7.78 µM)	6.25 (≈ 15.6 µM)	0.78 (≈ 1.94 µM)	–	–	–	–	–	–	–	–
O=C(NC(Cc1ccccc1)C(=O)Nc1ccccc1OCF)c1ccccc1 (stereo not shown) [IX-27, N-(1-((2-(fluoromethoxy)phenyl)amino)-1-oxo-3-phenylpropan-2-yl)benzamide]	–	1.56 (≈ 3.98 µM)	3.12 (≈ 7.96 µM)	0.195 (≈ 0.497 µM)	>100	990	–	–	–	–	–	–
COc1ccc(F)cc1NC(=O)C(Cc1ccc(O)cc1)NC(=O)c1ccccc1F (stereo not shown) [IX-204, 2-fluoro-N-(1-((5-fluoro-2-methoxyphenyl)amino)-3-(4-hydroxy-phenyl)-1-oxopropan-2-yl)benzamide]	–	0.78 (≈ 1.83 µM)	1.56 (≈ 3.66 µM)	0.39 (≈ 0.915 µM)	50	390	–	–	–	–	–	–
Cc1ccccc1NC(=O)C(Cc1cccc(O)c1)NC(=O)c1ccccc1 (stereo not shown) [I-12]	–	> 50	–	3.12 (≈ 8.35 µM)	>100	3500	–	–	–	–	–	–
